Measured values: patent US5840684A, “Glycopeptide antibiotic derivatives” (Eli Lilly and Company, priority 1995, dated 1998)
≈ marks a conversion by molar mass, not a printed value.

Experiments:
[1] = tested on: Staphylococcus aureus 446; experiment: broth micro-dilution MIC; assay type: cell-based
Procedure: (§1) The MIC's were determined using a standard broth micro-dilution assay.

[2] = tested on: Staphylococcus aureus 489; experiment: broth micro-dilution MIC; assay type: cell-based
Procedure: as §1

[3] = tested on: Streptococcus pyogenes C203; experiment: broth micro-dilution MIC; assay type: cell-based
Procedure: as §1

[4] = tested on: Staphylococcus aureus SA1199A; experiment: broth micro-dilution MIC; assay type: cell-based
Procedure: as §1

[5] = tested on: Staphylococcus aureus X400; experiment: broth micro-dilution MIC; assay type: cell-based
Procedure: as §1

Entercoccus faecium 276 = experiment: broth micro-dilution MIC; assay type: cell-based
Procedure: as §1

[6] = tested on: Staphylococcus aureus 447; experiment: broth micro-dilution MIC; assay type: cell-based
Procedure: as §1

[7] = tested on: Staphylococcus aureus 491; experiment: broth micro-dilution MIC; assay type: cell-based
Procedure: as §1

[8] = tested on: Entercoccus faecium 180-1; experiment: broth micro-dilution MIC; assay type: cell-based
Procedure: as §1

[9] = tested on: Staphylococcus aureus SA1199; experiment: broth micro-dilution MIC; assay type: cell-based
Procedure: as §1

[10] = tested on: vancomycin-susceptible enterococci; experiment: broth micro-dilution, mean geometric MIC; assay type: cell-based, Enterococcus faecium and Enterococcus faecalis; settings: enterococci, 24-hour incubation
[11] = tested on: Staphylococcus epidermidis 270; experiment: broth micro-dilution MIC; assay type: cell-based
Procedure: (§2) The formula I compounds have in vitro and in vivo activity against Gram-positive pathogenic bacteria. The MIC's were determined using a standard broth micro-dilution assay.

[12] = tested on: Streptococcus pneumoniae P1; experiment: broth micro-dilution MIC; assay type: cell-based
Procedure: as §2

Entercoccus faecium 180 = experiment: broth micro-dilution MIC; assay type: cell-based; settings: Entercoccus faecium 180
Procedure: as §2

[13] = tested on: Enterococcus gallinarum 245; experiment: broth micro-dilution MIC; assay type: cell-based; settings: Enterococcus gallinarum 245
Procedure: as §2

[14] = tested on: Staphylococcus haemolyticus 105; experiment: broth micro-dilution MIC; assay type: cell-based
Procedure: as §2

[15] = tested on: Staphylococcus haemolyticus 415; experiment: broth micro-dilution MIC; assay type: cell-based
Procedure: as §2

Entercoccus faecium 2041 = experiment: broth micro-dilution MIC; assay type: cell-based; settings: Entercoccus faecium 2041
Procedure: as §2

[16] = tested on: Staphylococcus aureus SA1199B; assay type: cell-based
Procedure: as §1

[17] = tested on: Staphylococcus aureus S13E; assay type: cell-based
Procedure: as §1

[18] = tested on: vancomycin-resistant enterococci; experiment: broth micro-dilution, mean geometric MIC; assay type: cell-based, Enterococcus faecium and Enterococcus faecalis; settings: enterococci, 24-hour incubation
[19] = tested on: Staphylococcus aureus X778; experiment: broth micro-dilution MIC; assay type: cell-based
Procedure: as §1

SMILES	MIC [1]	MIC [2]	MIC [3]	MIC [4]	MIC [5]	MIC (Entercoccus faecium 276)	MIC [6]	MIC [7]	MIC [8]	MIC [9]	mean geometric MIC, Vancomycin Sensitive Strains [10]	MIC [11]	MIC [12]	MIC (Entercoccus faecium 180)	MIC [13]	MIC [14]	MIC [15]	MIC (Entercoccus faecium 2041)	MIC [16]	mean geometric MIC, Vancomycin Resistant Strains [18]	also measured
CNC(CC(C)C)C(=O)NC1C(=O)NC(CC(N)=O)C(=O)NC2C(=O)NC3C(=O)NC(C(=O)NC(C(=O)O)c4cc(O)cc(O)c4-c4cc3ccc4O)C(OC3CC(C)(N)C(O)C(C)O3)c3ccc(c(Cl)c3)Oc3cc2cc(c3OC2OC(CO)C(O)C(O)C2OC2CC(C)(NCc3ccc4ccc5cccc6ccc3c4c56)C(O)C(C)O2)Oc2ccc(cc2Cl)C1O (centres unmarked) [Compound 16]	4 µg/mL (≈ 2.21 µM)	0.5 µg/mL (≈ 0.277 µM)	≤ 0.06 µg/mL	≤ 0.06 µg/mL	0.5 µg/mL (≈ 0.277 µM)	2 µg/mL (≈ 1.11 µM)	4 µg/mL (≈ 2.21 µM)	1 µg/mL (≈ 0.553 µM)	0.125 µg/mL (≈ 0.0692 µM)	2 µg/mL (≈ 1.11 µM)	0.67 µg/mL	2 µg/mL (≈ 1.11 µM)	≤ 0.06 µg/mL	1 µg/mL (≈ 0.553 µM)	1 µg/mL (≈ 0.553 µM)	8 µg/mL (≈ 4.43 µM)	4 µg/mL (≈ 2.21 µM)	0.5 µg/mL (≈ 0.277 µM)	1 µg/mL (≈ 0.553 µM)		MIC [17]: 1 µg/mL (≈ 0.553 µM)
CN[C@H](CC(C)C)C(=O)N[C@H]1C(=O)N[C@@H](CC(N)=O)C(=O)N[C@H]2C(=O)N[C@H]3C(=O)N[C@H](C(=O)N[C@H](C(=O)O)c4cc(O)cc(O)c4-c4cc3ccc4O)[C@H](O[C@H]3C[C@](C)(N)[C@@H](O)[C@H](C)O3)c3ccc(c(Cl)c3)Oc3cc2cc(c3O[C@@H]2O[C@H](CO)[C@@H](O)[C@H](O)[C@H]2O[C@H]2C[C@](C)(NCc3ccc(-c4cccc(F)c4)cc3)[C@@H](O)[C@H](C)O2)Oc2ccc(cc2Cl)[C@H]1O [Compound 92]	2 µg/mL (≈ 1.13 µM)	≤ 0.06 µg/mL	≤ 0.06 µg/mL	≤ 0.06 µg/mL	0.5 µg/mL (≈ 0.281 µM)	0.125 µg/mL (≈ 0.0704 µM)	0.5 µg/mL (≈ 0.281 µM)	1 µg/mL (≈ 0.563 µM)	≤ 0.06 µg/mL	1 µg/mL (≈ 0.563 µM)	0.082 µg/mL	1 µg/mL (≈ 0.563 µM)	≤ 0.06 µg/mL	0.125 µg/mL (≈ 0.0704 µM)	2 µg/mL (≈ 1.13 µM)	2 µg/mL (≈ 1.13 µM)	2 µg/mL (≈ 1.13 µM)	0.125 µg/mL (≈ 0.0704 µM)	0.5 µg/mL (≈ 0.281 µM)	1.7 µg/mL	MIC [17]: 0.125 µg/mL (≈ 0.0704 µM)
CNC(CC(C)C)C(=O)NC1C(=O)NC(CC(N)=O)C(=O)NC2C(=O)NC3C(=O)NC(C(=O)NC(C(=O)O)c4cc(O)cc(O)c4-c4cc3ccc4O)C(OC3CC(C)(N)C(O)C(C)O3)c3ccc(c(Cl)c3)Oc3cc2cc(c3OC2OC(CO)C(O)C(O)C2OC2CC(C)(NCc3ccc(OC(=O)C4CCCCC4)cc3)C(O)C(C)O2)Oc2ccc(cc2Cl)C1O (centres unmarked) [Compound 157]	0.5 µg/mL (≈ 0.276 µM)	0.5 µg/mL (≈ 0.276 µM)	≤ 0.06 µg/mL	≤ 0.06 µg/mL	0.5 µg/mL (≈ 0.276 µM)	≤ 0.06 µg/mL		≤ 0.06 µg/mL	≤ 0.06 µg/mL	1 µg/mL (≈ 0.553 µM)	0.054 µg/mL		≤ 0.06 µg/mL	≤ 0.06 µg/mL	1 µg/mL (≈ 0.553 µM)	1 µg/mL (≈ 0.553 µM)	1 µg/mL (≈ 0.553 µM)	≤ 0.06 µg/mL	1 µg/mL (≈ 0.553 µM)	2.0 µg/mL	
CNC(CC(C)C)C(=O)NC1C(=O)NC(CC(N)=O)C(=O)NC2C(=O)NC3C(=O)NC(C(=O)NC(C(=O)O)c4cc(O)cc(O)c4-c4cc3ccc4O)C(OC3CC(C)(N)C(O)C(C)O3)c3ccc(c(Cl)c3)Oc3cc2cc(c3OC2OC(CO)C(O)C(O)C2OC2CC(C)(NCc3ccc(-c4ccccc4)s3)C(O)C(C)O2)Oc2ccc(cc2Cl)C1O (centres unmarked) [Compound 67]		≤ 0.06 µg/mL		≤ 0.06 µg/mL	1 µg/mL (≈ 0.567 µM)	≤ 0.06 µg/mL	1 µg/mL (≈ 0.567 µM)	1 µg/mL (≈ 0.567 µM)	≤ 0.06 µg/mL	1 µg/mL (≈ 0.567 µM)	0.16 µg/mL	0.5 µg/mL (≈ 0.283 µM)	≤ 0.06 µg/mL		2 µg/mL (≈ 1.13 µM)		2 µg/mL (≈ 1.13 µM)	≤ 0.06 µg/mL	1 µg/mL (≈ 0.567 µM)	1.7 µg/mL	
CNC(CC(C)C)C(=O)NC1C(=O)NC(CC(N)=O)C(=O)NC2C(=O)NC3C(=O)NC(C(=O)NC(C(=O)O)c4cc(O)cc(O)c4-c4cc3ccc4O)C(OC3CC(C)(N)C(O)C(C)O3)c3ccc(cc3)Oc3cc2cc(c3OC2OC(CO)C(O)C(O)C2OC2CC(C)(NCc3ccc(-c4ccccc4)cc3)C(O)C(C)O2)Oc2ccc(cc2Cl)C1O (centres unmarked) [Compound 182]	2 µg/mL (≈ 1.16 µM)	2 µg/mL (≈ 1.16 µM)	≤ 0.06 µg/mL	≤ 0.06 µg/mL	1 µg/mL (≈ 0.58 µM)	1 µg/mL (≈ 0.58 µM)		1 µg/mL (≈ 0.58 µM)	≤ 0.06 µg/mL	2 µg/mL (≈ 1.16 µM)			≤ 0.06 µg/mL	2 µg/mL (≈ 1.16 µM)	1 µg/mL (≈ 0.58 µM)	2 µg/mL (≈ 1.16 µM)	4 µg/mL (≈ 2.32 µM)	1 µg/mL (≈ 0.58 µM)	4 µg/mL (≈ 2.32 µM)	13 µg/mL	MIC [19]: 2 µg/mL (≈ 1.16 µM)
C=CCOc1ccc(CNC2(C)CC(OC3C(Oc4c5cc6cc4Oc4ccc(cc4Cl)C(OC4CC(C)(N)C(O)C(C)O4)C4NC(=O)C(NC(=O)C6NC(=O)C(CC(N)=O)NC(=O)C(NC(=O)C(CC(C)C)NC)C(O)c6ccc(c(Cl)c6)O5)c5ccc(O)c(c5)-c5c(O)cc(O)cc5C(C(=O)O)NC4=O)OC(CO)C(O)C3O)OC(C)C2O)cc1 (centres unmarked) [Compound 7]	8 µg/mL (≈ 4.6 µM)	2 µg/mL (≈ 1.15 µM)	≤ 0.06 µg/mL	≤ 0.06 µg/mL	1 µg/mL (≈ 0.575 µM)	1 µg/mL (≈ 0.575 µM)	4 µg/mL (≈ 2.3 µM)	2 µg/mL (≈ 1.15 µM)	≤ 0.06 µg/mL	4 µg/mL (≈ 2.3 µM)	0.43 µg/mL	4 µg/mL (≈ 2.3 µM)	≤ 0.06 µg/mL	2 µg/mL (≈ 1.15 µM)	0.5 µg/mL (≈ 0.288 µM)	8 µg/mL (≈ 4.6 µM)			1 µg/mL (≈ 0.575 µM)	2.8 µg/mL	MIC [17]: 2 µg/mL (≈ 1.15 µM)
CNC(CC(C)C)C(=O)NC1C(=O)NC(CC(N)=O)C(=O)NC2C(=O)NC3C(=O)NC(C(=O)NC(C(=O)O)c4cc(O)cc(O)c4-c4cc3ccc4O)C(OC3CC(C)(N)C(O)C(C)O3)c3ccc(c(Cl)c3)Oc3cc2cc(c3OC2OC(CO)C(O)C(O)C2OC2CC(C)(NCc3ccc(-c4ccc(C(F)(F)F)cc4)cc3)C(O)C(C)O2)Oc2ccc(cc2Cl)C1O (centres unmarked) [Compound 216]	1 µg/mL (≈ 0.547 µM)	1 µg/mL (≈ 0.547 µM)	≤ 0.06 µg/mL	1 µg/mL (≈ 0.547 µM)	1 µg/mL (≈ 0.547 µM)	0.5 µg/mL (≈ 0.274 µM)	1 µg/mL (≈ 0.547 µM)	1 µg/mL (≈ 0.547 µM)	≤ 0.06 µg/mL	≤ 0.06 µg/mL	0.032 µg/mL		≤ 0.06 µg/mL	≤ 0.06 µg/mL		0.5 µg/mL (≈ 0.274 µM)			0.5 µg/mL (≈ 0.274 µM)	0.35 µg/mL	MIC [17]: 1 µg/mL (≈ 0.547 µM)
CNC(CC(C)C)C(=O)NC1C(=O)NC(CC(N)=O)C(=O)NC2C(=O)NC3C(=O)NC(C(=O)NC(C(=O)O)c4cc(O)cc(O)c4-c4cc3ccc4O)C(OC3CC(C)(N)C(O)C(C)O3)c3ccc(c(Cl)c3)Oc3cc2cc(c3OC2OC(CO)C(O)C(O)C2OC2CC(C)(NCc3ccc(Oc4ccccc4Cl)c([N+](=O)[O-])c3)C(O)C(C)O2)Oc2ccc(cc2Cl)C1O (centres unmarked) [Compound 88]		0.5 µg/mL (≈ 0.27 µM)	≤ 0.06 µg/mL	≤ 0.06 µg/mL	≤ 0.06 µg/mL	≤ 0.06 µg/mL		0.5 µg/mL (≈ 0.27 µM)	≤ 0.06 µg/mL	1 µg/mL (≈ 0.539 µM)	0.055 µg/mL	1 µg/mL (≈ 0.539 µM)	≤ 0.06 µg/mL	0.125 µg/mL (≈ 0.0674 µM)	≤ 0.06 µg/mL	1 µg/mL (≈ 0.539 µM)	2 µg/mL (≈ 1.08 µM)	≤ 0.06 µg/mL	1 µg/mL (≈ 0.539 µM)	1.7 µg/mL	MIC [19]: 0.5 µg/mL (≈ 0.27 µM); MIC [17]: 1 µg/mL (≈ 0.539 µM)
